Assay results from patent US20220016060A1, “USE OF SODIUM 2-(3-PENTYLPHENYL)ACETATE IN THE TREATMENT OF ALSTRÖM SYNDROME” (LIMINAL BIOSCIENCES LIMITED, priority 2018, published 2022).
Values joined by “and” are separate entries in the source; they are usually repeats but may differ in a detail not shown here. Equal values may be shown once. “Also recorded” adds a separate entry of the source.

Tests used:
Assay type in all cases: in vivo, human
[1] = system: ALMS patients; assay: Cardiac MRI of left ventricular function (LVESV, LVEDV); conditions: for Change from Baseline LVEDV, Mean (SD) / Change from Baseline LVEDV, Median / Change from Baseline LVESV, Mean (SD) / Change from Baseline LVESV, Median: 800 mg daily oral
Description: (§1) The study was a Phase 2, single-centre, single-arm, open-label study of sodium 2-(3-pentylphenyl)acetate administered at a total daily oral dose of 800 mg for up to 72 weeks in subjects with ALMS was undertaken. The initial duration of the study was 24 weeks, and subjects were offered to enrol into an extension phase of 36 or 48 weeks. The schedule of study procedures for the enrolment, intervention, and assessments for participants is outlined in FIG. 1.
Sodium 2-(3-pentylphenyl)acetate was formulated in soft gelatine capsules containing 200 mg of Sodium 2-(3-pentylphenyl)acetate (amorphous powder) per capsule, polyethylene glycol 400, National Formulary (NF), hydrochloric acid (for pH adjustment), and water.
The effect of sodium 2-(3-pentylphenyl)acetate on heart histology in ALMS patients was assessed by measuring left ventricular function (LVF). LVF measurements permit to quantify how well the left ventricle is able to pump blood through the body with each heartbeat, and is also a prognostic factor in acute myocardial infarction.

[2] = system: ALMS patients; assay: Urinary kidney toxicity biomarkers (MCP-1, KIM-1, clusterin, cystatin C, osteopontin); conditions: analyte/creatinine ratio in urine; 800 mg daily oral
Description: as §1, with “1. Sodium 2-(3-pentylphenyl)acetate was formulated in soft gelatine capsules containing 200 mg of Sodium 2-(3-pentylphenyl)acetate (amorphous powder) per capsule, polyethylene glycol 400, National Formulary (NF), hydrochloric acid (for pH adjustment), and water. […] The levels of these markers was assessed at baseline and after 24 weeks of treatment with sodium 2-(3-pentylphenyl)acetate in ALMS patients, and the results are reported in Table 15.” for “1.”

[3] = system: ALMS patients; assay: HOMA-B based on C-peptide and fasting plasma glucose; conditions: for Change from Baseline HOMA-B Based on C-Peptide and FPG, Mean / Change from Baseline HOMA-B Based on C-Peptide and FPG, Median: 800 mg
Description: The study was a Phase 2, single-centre, single-arm, open-label study of sodium 2-(3-pentylphenyl)acetate administered at a total daily oral dose of 800 mg for up to 72 weeks in subjects with ALMS was undertaken. The initial duration of the study was 24 weeks, and subjects were offered to enrol into an extension phase of 36 or 48 weeks. The schedule of study procedures for the enrolment, intervention, and assessments for participants is outlined in FIG. 1. Sodium 2-(3-pentylphenyl)acetate was formulated in soft gelatine capsules containing 200 mg of Sodium 2-(3-pentylphenyl)acetate (amorphous powder) per capsule, polyethylene glycol 400, National Formulary (NF), hydrochloric acid (for pH adjustment), and water. E) Homeostasis Model Assessment for Steady State Beta-Cell Function Based on C-Peptide and Fasting Plasma Glucose (HOMA-B [C-Peptide/FPG]) The effect of sodium 2-(3-pentylphenyl)acetate on HOMA-B (C-peptide/FPG) was assessed, and the results are presented in Table 24.

[4] = system: ALMS patients; assay: Liver stiffness by transient elastography (FibroScan) and Metavir score, Phase 2 open-label study; conditions: for Change from Baseline Transient Elastography, Mean (SD) / Change from Baseline Transient Elastography, Median / Transient Elastography Score / Metavir Score (F): 800 mg daily oral
Description: The study was a Phase 2, single-centre, single-arm, open-label study of sodium 2-(3-pentylphenyl)acetate administered at a total daily oral dose of 800 mg for up to 72 weeks in subjects with ALMS was undertaken. The initial duration of the study was 24 weeks, and subjects were offered to enrol into an extension phase of 36 or 48 weeks. The schedule of study procedures for the enrolment, intervention, and assessments for participants is outlined in FIG. 1. Sodium 2-(3-pentylphenyl)acetate was formulated in soft gelatine capsules containing 200 mg of Sodium 2-(3-pentylphenyl)acetate (amorphous powder) per capsule, polyethylene glycol 400, National Formulary (NF), hydrochloric acid (for pH adjustment), and water. A total of 15 subjects participated in the study. […] Twelve (12) subjects met the eligibility criteria and received at least 1 dose of 800 mg sodium 2-(3-pentylphenyl)acetate, with all 12 subjects completing the initial 24-week treatment period as planned. A 36-week EP was added to the study protocol (Table 1). Ten (10) of the 12 subjects who completed the initial 24-week study drug treatment period continued in the EP, with 6 subjects having a break in treatment until the amendment was implemented before continuing treatment in the EP and 4 subjects continuing in the EP without any break in treatment. Two subjects (826-001-002 and 826-001-014) completed the study after the initial 24-week study drug treatment period. The effect of sodium 2-(3-pentylphenyl)acetate on liver histology in ALMS patients was first assessed by measuring liver stiffness. Liver stiffness is a physical parameter that reflects the health of the liver and is commonly used to diagnose liver diseases. Increased liver stiffness may be associated with hepatic dysfunction.

[5] = Subject 826-001-013, 30-day break in treatment
[6] = individual subjects, EP Week 12 (Week 36)
[7] = individual subjects, EP Week 24 (Week 48)
[8] = individual subjects, EP Week 36 (Week 60)

## CCCCCc1cccc(CC(=O)[O-])c1.[Na+] [sodium 2-(3-pentylphenyl)acetate]
[1]; 9/12 subjects
  subjects in whom LVESV increased or did not change from baseline: 75.0%
[1]; 10/12 subjects
  subjects in whom LVEDV increased from baseline: 83.3%
[1]; EP Week 36 (Week 60), N=4
  Change from Baseline LVEDV, Mean (SD): 7.75 (3.948) mL
  Change from Baseline LVEDV, Median: 8.50 mL
  Change from Baseline LVESV, Mean (SD): 3.75 (2.500) mL
  Change from Baseline LVESV, Median: 3.50 mL
[1]; Week 24, N=10
  Change from Baseline LVEDV, Mean (SD): 4.40 (16.574) mL
  Change from Baseline LVEDV, Median: 5.00 mL
  Change from Baseline LVESV, Mean (SD): 0.70 (9.650) mL
  Change from Baseline LVESV, Median: 3.00 mL
[1]; after 60 weeks of treatment
  change in LVESV from baseline: strong trend toward an increase
[1]; after 60 weeks of treatment, p=0.0294
  mean increase in LVEDV from baseline: 7.75 mL
[1]; subject 826-001-015
  LVESV relative to normal range: Normalization of LVESV after treatment
[1]; subjects 826-001-002 and 826-001-004, below normal at baseline
  LVEDV and LVESV relative to normal range: within the normal range after the treatment period
[2]
  Urinary Clusterin, Mean Fold Change from Baseline to Week 24: 0.66
  Urinary Clusterin, mean change from Baseline to Week 24 (%): −34%
  Urinary Cystatin C, Mean Fold Change from Baseline to Week 24: 0.75
  Urinary Cystatin C, mean change from Baseline to Week 24 (%): −25%
  Urinary KIM-1, Mean Fold Change from Baseline to Week 24: 0.67
  Urinary KIM-1, mean change from Baseline to Week 24 (%): −33%
  Urinary MCP-1, Mean Fold Change from Baseline to Week 24: 0.85
  Urinary MCP-1, mean change from Baseline to Week 24 (%): −15%
  Urinary Osteopontin, Mean Fold Change from Baseline to Week 24: 0.82
  Urinary Osteopontin, mean change from Baseline to Week 24 (%): −18%
[3]; EP Week 12 (Week 36), N 10
  Change from Baseline HOMA-B Based on C-Peptide and FPG, Mean: 1.70
  Change from Baseline HOMA-B Based on C-Peptide and FPG, Median: 16.50
[3]; EP Week 24 (Week 48), N 9
  Change from Baseline HOMA-B Based on C-Peptide and FPG, Mean: 24.57
  Change from Baseline HOMA-B Based on C-Peptide and FPG, Median: −1.90
[3]; EP Week 36 (Week 60), N 8
  Change from Baseline HOMA-B Based on C-Peptide and FPG, Mean: 1.42
  Change from Baseline HOMA-B Based on C-Peptide and FPG, Median: 8.00
[3]; EP Week 48 (Week 72), N 3
  Change from Baseline HOMA-B Based on C-Peptide and FPG, Mean: 60.17
  Change from Baseline HOMA-B Based on C-Peptide and FPG, Median: 89.40
[3]; Week 12, N 11
  Change from Baseline HOMA-B Based on C-Peptide and FPG, Mean: 52.58
  Change from Baseline HOMA-B Based on C-Peptide and FPG, Median: 35.60
[3]; Week 24, N 12
  Change from Baseline HOMA-B Based on C-Peptide and FPG, Mean: −1.60
  Change from Baseline HOMA-B Based on C-Peptide and FPG, Median: 0.60
[3]; 9/12 subjects
  subjects in whom HOMA-B (C-peptide/FPG) increased from baseline: 75.0%
[3]; Subject 826-001-001, 204-day break in treatment
  reduction in HOMA-B (C-peptide/FPG): 62.4
[3]; Subject 826-001-007, 32-day break in treatment
  reduction in HOMA-B (C-peptide/FPG): 33.4
[3]; [5]
  reduction in HOMA-B (C-peptide/FPG): 96.7
[4]; 8/11 subjects, after treatment with 800 mg
  subjects in whom liver stiffness decreased from baseline: 72.3%
[4]; EP Week 12 (Week 36), N=10
  Change from Baseline Transient Elastography, Mean (SD): −1.41 (2.585) kPa
  Change from Baseline Transient Elastography, Median: −1.75 kPa
[4]; EP Week 24 (Week 48), N=10
  Change from Baseline Transient Elastography, Mean (SD): −1.49 (2.335) kPa
  Change from Baseline Transient Elastography, Median: −1.45 kPa
[4]; EP Week 36 (Week 60), N=9
  Change from Baseline Transient Elastography, Mean (SD): −2.59 (2.703) kPa
  Change from Baseline Transient Elastography, Median: −2.30 kPa
[4]; [5]
  largest increase in liver stiffness from baseline: 1.8 kPa
[4]; Subject 826-001-015, baseline F4
  Metavir score at Week 60: F0/1 (Metavir score F0-F1: absence or mild fibrosis (2.5-7.0 kPa on FibroScan ®))
[4]; Subjects 826-001-001, -004, -012, -015
  number of subjects with at least a 1-grade reduction in liver fibrosis (Metavir scoring system): 4 subjects
[4]; Week 12, N=11
  Change from Baseline Transient Elastography, Mean (SD): −1.19 (2.160) kPa
  Change from Baseline Transient Elastography, Median: −1.50 kPa
[4]; Week 24, N=11
  Change from Baseline Transient Elastography, Mean (SD): −1.01 (2.308) kPa
  Change from Baseline Transient Elastography, Median: −0.70 kPa
[4]; after 60 weeks of treatment, p=0.0207
  decrease in liver stiffness from baseline (mean): 2.59 kPa
[4]; individual subjects (one line per subject), Week 12
  Transient Elastography Score: 7.1 kPa and 6.1 kPa and 4.5 kPa and 5.3 kPa and 3.1 kPa and 10.5 kPa and 19.6 kPa and 7.8 kPa and 12.2 kPa and 12.0 kPa and 50.5 kPa and 7.7 kPa
[4]; [6]
  Metavir Score (F): (F0/1) (Metavir score F0-F1: absence or mild fibrosis (2.5-7.0 kPa on FibroScan ®)); also recorded: (F2) (Metavir score F2: significant fibrosis ≥ 7.1 to < 9.5 kPa on FibroScan ®)); also recorded: (F4) (Metavir score F4: cirrhosis( ≥ 12.5 kPa on FibroScan ®)); also recorded: (F3) (Metavir score F3: severe fibrosis ≥ 9.5 to < 12.5 kPa on FibroScan ®)
  Transient Elastography Score: 6.6 kPa and 4.2 kPa and 6.5 kPa and 4.6 kPa and 8.9 kPa and 18.6 kPa and 5.8 kPa and 10.2 kPa and 14.7 kPa and 7.4 kPa
[4]; [7]
  Metavir Score (F): (F2) (Metavir score F2: significant fibrosis ≥ 7.1 to < 9.5 kPa on FibroScan ®)); also recorded: (F0/1) (Metavir score F0-F1: absence or mild fibrosis (2.5-7.0 kPa on FibroScan ®)); also recorded: (F4) (Metavir score F4: cirrhosis( ≥ 12.5 kPa on FibroScan ®)); also recorded: (F3) (Metavir score F3: severe fibrosis ≥ 9.5 to < 12.5 kPa on FibroScan ®)
  Transient Elastography Score: 7.1 kPa and 4.1 kPa and 4.7 kPa and 5.1 kPa and 7.5 kPa and 21.6 kPa and 5.0 kPa and 12.1 kPa and 12.6 kPa and 6.9 kPa
[4]; [8]
  Metavir Score (F): (F2) (Metavir score F2: significant fibrosis ≥ 7.1 to < 9.5 kPa on FibroScan ®)); also recorded: (F0/1) (Metavir score F0-F1: absence or mild fibrosis (2.5-7.0 kPa on FibroScan ®)); also recorded: (F4) (Metavir score F4: cirrhosis( ≥ 12.5 kPa on FibroScan ®)); also recorded: (F3) (Metavir score F3: severe fibrosis ≥ 9.5 to < 12.5 kPa on FibroScan ®)
  Transient Elastography Score: 7.8 kPa and 3.8 kPa and 5.0 kPa and 3.9 kPa and 17.1 kPa and 6.0 kPa and 8.6 kPa and 12.2 kPa and 5.1 kPa
[4]; individual subjects, Week 12
  Metavir Score (F): (F2) (Metavir score F2: significant fibrosis ≥ 7.1 to < 9.5 kPa on FibroScan ®)); also recorded: (F0/1) (Metavir score F0-F1: absence or mild fibrosis (2.5-7.0 kPa on FibroScan ®)); also recorded: (F3) (Metavir score F3: severe fibrosis ≥ 9.5 to < 12.5 kPa on FibroScan ®); also recorded: (F4) (Metavir score F4: cirrhosis( ≥ 12.5 kPa on FibroScan ®))
[4]; individual subjects, Week 24
  Metavir Score (F): (F2) (Metavir score F2: significant fibrosis ≥ 7.1 to < 9.5 kPa on FibroScan ®)); also recorded: (F0/1) (Metavir score F0-F1: absence or mild fibrosis (2.5-7.0 kPa on FibroScan ®)); also recorded: (F4) (Metavir score F4: cirrhosis( ≥ 12.5 kPa on FibroScan ®))
  Transient Elastography Score: 7.2 kPa and 7.6 kPa and 5.9 kPa and 5.2 kPa and 4.6 kPa and 8.1 kPa and 21.8 kPa and 5.6 kPa and 8.6 kPa and 14.3 kPa and 48.9 kPa and 9.0 kPa
